Source: patent US8476271B2 (priority 2008, dated 2013)
Where a name gives a salt, the structure may show the parent alone.

Columns and labels:
[1] = test system: FCA-induced thermal hyperalgesia; test: FCA model of inflammatory pain, thermal hyperalgesia (PWL, plantar test); assay type: in vivo; conditions: rat
Procedure: (§1) Each experiment used rats weighing between 200-260 g at the start of the experiment. The rats were group-housed and had free access to food and water at all times, except prior to oral administration of a Substituted-Quinoxaline-Type Bridged-Piperidine Compound when food was removed for 16 hours before dosing. A control group acted as a comparison to rats treated with a Substituted-Quinoxaline-Type Bridged-Piperidine Compound. The control group was administered the carrier for the Substituted-Quinoxaline-Type Bridged-Piperidine Compound. The volume of carrier administered to the control group was the same as the volume of carrier and Substituted-Quinoxaline-Type Bridged-Piperidine Compound administered to the test group.
To assess the actions of a Substituted-Quinoxaline-Type Bridged-Piperidine Compound for the treatment or prevention of inflammatory pain, the Freund's complete adjuvant (“FCA”) model of inflammatory pain was used. […] The left hind paw of each animal was administered a 50 μL intraplantar injection of 50% FCA. 24 hour post injection, the animal was assessed for response to noxious mechanical stimuli by determining the PWT, or to noxious thermal stimuli by determining the PWL, as described below. […] Responses to noxious mechanical stimuli were then determined 1, 3, 5 and 24 hours post administration. Percentage reversal of hyperalgesia for each animal was defined as: […]
The plantar test can be used to assess thermal hyperalgesia. For this test, hind paw withdrawal latencies (PWL) to a noxious thermal stimulus were determined using a plantar test apparatus (commercially available from Ugo Basile of Italy) following the technique described by K. Hargreaves et al., “A New and Sensitive Method for Measuring Thermal Nociception in Cutaneous Hyperalgesia,” Pain 32(1):77-88 (1988). The maximum exposure time was set at 32 seconds to avoid tissue damage and any directed paw withdrawal from the heat source was taken as the end point. Three latencies were determined at each time point and averaged. Either only the affected (ipsilateral) paw was tested, or both the ipsilateral and contralateral (non-injured) paw were tested.

[2] = abnormal behavioral side effects (sedation, hyperactivity, hypoactivity); conditions: rat, in vivo
[3] = test system: nerve injury-induced mechanical hyperalgesia; test: Seltzer partial sciatic nerve ligation model of neuropathic pain, mechanical hyperalgesia (PWT); assay type: in vivo; conditions: rat, 3 mg/kg
Procedure: as §1
Partial ligation of the left sciatic nerve was performed under isoflurane/O2 inhalation anesthesia. Following induction of anesthesia, the left thigh of the rat was shaved and the sciatic nerve exposed at high thigh level through a small incision and was carefully cleared of surrounding connective tissues at a site near the trocanther just distal to the point at which the posterior biceps semitendinosus nerve branches off of the common sciatic nerve. A 7-0 silk suture was inserted into the nerve with a ⅜ curved, reversed-cutting mini-needle and tightly ligated so that the dorsal ⅓ to ½ of the nerve thickness was held within the ligature. The wound was closed with a single muscle suture (4-0 nylon (Vicryl)) and vetbond tissue glue. Following surgery, the wound area was dusted with antibiotic powder. Sham-treated rats underwent an identical surgical procedure except that the sciatic nerve was not manipulated. Following surgery, animals were weighed and placed on a warm pad until they recovered from anesthesia. Animals were then returned to their home cages until behavioral testing began. The animals were assessed for response to noxious mechanical stimuli by determining PWT, as described below, prior to surgery (baseline), then immediately prior to and 1, 3, and 5 hours after drug administration for rear paw of the animal. Percentage reversal of neuropathic hyperalgesia was defined as: […]
The paw pressure assay was used to assess mechanical hyperalgesia. For this assay, hind paw withdrawal thresholds (PWT) to a noxious mechanical stimulus were determined using an analgesymeter (Model 7200, commercially available from Ugo Basile of Italy) as described in C. […] The maximum weight that could be applied to the hind paw was set at 250 g and the end point is taken was complete withdrawal of the paw. PWT was determined once for each rat at each time point and either only the affected (ipsilateral) paw was tested, or both the ipsilateral and contralateral (non-injured) paw were tested.

[4] = biological target: hERG (human ether a-go-go gene) (Homo sapiens (Human), UniProt Q12809); test: cardiovascular side effects: in vitro hERG assay and APD in guinea pig purkinje fibers
Procedure: These side effects were determined using known methods: an in vitro hERG (human ether a-go-go gene) assay as disclosed in Z. Zhou et al., “Properties of HERG Channels Stably Expressed in HEK 293 Cells Studied at Physiological Temperature,” Biophysical J. 74:230-241 (1998); and APD (action potential duration) in guinea pig purkinje fibers as disclosed in J. A. Hey, “The Guinea Pig Model for Assessing Cardiotoxic Proclivities of Second Generation Antihistamines,” Arzneimittelforschung 46(8):834-837 (1996).

[5] = 5 mg/kg dose, 1 hour after administration
[6] = 5 mg/kg dose, 3 hours after administration
[7] = 5 mg/kg dose, 5 hours after administration

| SMILES | % reversal of thermal hyperalgesia [1, 5] [%] | % reversal of thermal hyperalgesia [1, 6] [%] | % reversal of thermal hyperalgesia [1, 7] [%] | abnormal behavioral side effects, such as sedation, hyperactivity and/or hypoactivity [2] | % reversal of thermal hyperalgesia ([1]; 3 mg/kg dose, 1 hour after administration) [%] | % reversal of thermal hyperalgesia ([1]; 3 mg/kg dose, 3 hours after administration) [%] | % reversal of thermal hyperalgesia ([1]; 3 mg/kg dose, 5 hours after administration) [%] | ED50 for reversal of thermal hyperalgesia ([1]; 1 hour after administration) [mg/kg] | ED50 for reversal of thermal hyperalgesia ([1]; 3 hours after administration) [mg/kg] | ED50 for reversal of thermal hyperalgesia ([1]; 5 hours after administration) [mg/kg] | % reversal of mechanical hyperalgesia ([3]; 1 hour after administration) [%] | % reversal of mechanical hyperalgesia ([3]; 3 hours after administration) [%] | % reversal of mechanical hyperalgesia ([3]; 5 hours after administration) [%] | % reversal of mechanical hyperalgesia ([3]; 7 hours after administration) [%] | cardiovascular side effects [4] |
| --- | --- | --- | --- | --- | --- | --- | --- | --- | --- | --- | --- | --- | --- | --- | --- |
| O=C(O)c1nc2ccccc2n([C@H]2C[C@H]3CC[C@@H](C2)N3C2CCCCCCCCCC2)c1=O [Compound 358, 4-((endo)-8-cycloundecyl-8-azabicyclo[3.2.1]octan-3-yl)-3-oxo-3,4-dihydroquinoxaline-2-carboxylic acid] | 34 | 46 | 79 | reduced abnormal behavioral side effects |  |  |  |  |  |  |  |  |  |  |  |
| O=C(O)c1nc2ccccc2n([C@H]2C[C@H]3CC[C@@H](C2)N3[C@H]2C[C@@H]3CCC[C@@H](C3)C2)c1=O [Compound 361, 4-((endo)-8-((exo)-bicyclo[3.3.1]nonan-3-yl)-8-azabicyclo[3.2.1]octan-3-yl)-3-oxo-3,4-dihydroquinoxaline-2-carboxylic acid] | 36 | 90 | 70 | reduced abnormal behavioral side effects |  |  |  |  |  |  |  |  |  |  |  |
| O=C(O)c1nc2ccccc2n([C@H]2C[C@H]3CCC[C@@H](C2)N3C2CC3CCCC(C3)C2)c1=O (stereo partly drawn) [Compound 362, 4-((endo)-9-((exo)-bicyclo[3.3.1]nonan-3-yl)-9-azabicyclo[3.3.1]nonan-3-yl)-3-oxo-3,4-dihydroquinoxaline-2-carboxylic acid] |  |  |  | reduced abnormal behavioral side effects | 86 | 51 | 27 | 0.8 | 1.5 | 3.0 | 60 | 60 | 50 | 40 | reduced cardiovascular side effects |
| C[C@@H]1C[C@@H]2C[C@H](C1)C[C@@H](N1[C@@H]3CCC[C@H]1C[C@@H](n1c(=O)c(C(=O)O)nc4ccccc41)C3)C2 [Compound 405, (exo, endo, endo)-4-(9-(7-methylbicyclo[3.3.1]nonan-3-yl)-9-azabicyclo[3.3.1]nonan-3-yl)-3-oxo-3,4-dihydroquinoxaline-2-carboxylic acid potassium salt] |  |  |  |  |  |  |  |  |  |  | 70 | 70 | 70 |  |  |
